This passage reports IC50 results from patent publication US12187702B2, “Sulfonamideurea compounds” (Inflazome Limited, priority 2018, dated 2025).

Structures can show the parent of a compound that is named as a salt.

T1 sequence (Q96P20 whole entry): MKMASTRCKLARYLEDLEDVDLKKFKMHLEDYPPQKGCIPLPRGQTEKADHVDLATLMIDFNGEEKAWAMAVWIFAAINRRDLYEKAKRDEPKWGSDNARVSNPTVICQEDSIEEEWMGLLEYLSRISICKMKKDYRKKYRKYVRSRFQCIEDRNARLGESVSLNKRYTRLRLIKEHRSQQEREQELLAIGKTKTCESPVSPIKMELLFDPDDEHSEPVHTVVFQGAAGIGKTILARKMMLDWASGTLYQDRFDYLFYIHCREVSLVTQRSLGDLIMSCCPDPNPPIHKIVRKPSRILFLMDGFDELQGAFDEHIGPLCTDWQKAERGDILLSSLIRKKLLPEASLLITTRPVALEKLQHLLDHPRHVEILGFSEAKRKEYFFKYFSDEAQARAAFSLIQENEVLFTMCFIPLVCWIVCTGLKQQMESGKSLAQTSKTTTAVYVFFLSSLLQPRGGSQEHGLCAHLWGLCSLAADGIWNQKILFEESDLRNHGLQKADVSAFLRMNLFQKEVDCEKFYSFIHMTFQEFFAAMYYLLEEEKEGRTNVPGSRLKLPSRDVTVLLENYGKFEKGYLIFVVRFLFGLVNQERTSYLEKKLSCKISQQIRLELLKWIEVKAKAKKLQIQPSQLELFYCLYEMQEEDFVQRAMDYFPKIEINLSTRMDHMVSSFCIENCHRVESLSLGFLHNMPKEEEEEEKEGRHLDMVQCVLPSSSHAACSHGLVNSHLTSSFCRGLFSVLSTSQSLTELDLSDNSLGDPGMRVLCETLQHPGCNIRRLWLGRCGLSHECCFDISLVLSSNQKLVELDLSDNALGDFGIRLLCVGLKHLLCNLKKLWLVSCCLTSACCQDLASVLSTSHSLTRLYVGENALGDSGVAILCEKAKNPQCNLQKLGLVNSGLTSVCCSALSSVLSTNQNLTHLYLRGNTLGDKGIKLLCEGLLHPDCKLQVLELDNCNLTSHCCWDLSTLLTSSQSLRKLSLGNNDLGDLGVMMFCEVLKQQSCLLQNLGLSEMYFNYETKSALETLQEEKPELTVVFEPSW

The first assay has as its target T1, NLRP3 (Homo sapiens, UniProt Q96P20). As to the kind of experiment: THP-1 cells pyroptosis assay (LPS + nigericin, resazurin read-out). The assay is classed as cell-based. Details: Seed THP-1 cells (25,000 cells/well) containing 1.0 μg/ml LPS; host or cells: THP-1 cells. The note with it: THP-1 cells, 1 μg/ml LPS, 5 μM nigericin; NLRP3 inhibitory activity; read-out: THP IC50. The procedure: THP-1 cells (ATCC #TIB-202) were grown in RPMI containing L-glutamine (Gibco #11835) supplemented with 1 mM sodium pyruvate (Sigma #S8636) and penicillin (100 units/ml)/streptomycin (0.1 mg/ml) (Sigma #P4333) in 10% Fetal Bovine Serum (FBS) (Sigma #F0804). The cells were routinely passaged and grown to confluency (˜10^6 cells/ml). On the day of the experiment, THP-1 cells were harvested and resuspended into RPMI medium (without FBS). The cells were then counted and viability (>90%) checked by Trypan blue (Sigma #T8154). Appropriate dilutions were made to give a concentration of 625,000 cells/ml. To this diluted cell solution was added LPS (Sigma #L4524) to give a 1 μg/ml Final Assay Concentration (FAC). 40 μl of the final preparation was aliquoted into each well of a 96-well plate. The plate thus prepared was used for compound screening.
The following method step-by-step assay was followed for compound screening. • 1. Seed THP-1 cells (25,000 cells/well) containing 1.0 μg/ml LPS in 40 μl of RPMI medium (without FBS) in 96-well, black walled, clear bottom cell culture plates coated with poly-D-lysine (VWR #734-0317) • 2. Add 5 μl compound (8 points half-log dilution, with 10 μM top dose) or vehicle (DMSO 0.1% FAC) to the appropriate wells • 3. Incubate for 3 hrs at 37° C., 5% CO2 • 4. Add 5 μl nigericin (Sigma #N7143) (FAC 5 μM) to all wells • 5. Incubate for 1 hr at 37° C., 5% CO2 • 6. At the end of the incubation period, spin plates at 300×g for 3 mins and remove supernatant • 7. Then add 50 μl of resazurin (Sigma #R7017) (FAC 100 μM resazurin in RPMI medium without FBS) and incubate plates for a further 1-2 hrs at 37° C. and 5% CO2 • 8. Plates were read in an Envision reader at Ex 560 nm and Em 590 nm • 9. IC50 data is fitted to a non-linear regression equation (log inhibitor vs response-variable slope 4-parameters)
Turning to `CN(C)C1CCN(S(=O)(=O)NC(=O)Nc2c3c(cc4c2CCC4)CCC3)C1` (centres unmarked) [Example 9, 3-(Dimethylamino)-N-((1,2,3,5,6,7-hexahydro-s-indacen-4-yl)carbamoyl)pyrrolidine-1-sulfonamide, potassium salt], the IC50 (in general, the concentration that gives 50% inhibition) is under 0.5 µM.
With `CC(=O)N(C)CCN(C)S(=O)(=O)NC(=O)Nc1c2c(cc3c1CCC3)CCC2` [Example 41, N-(2-((N-((1,2,3,5,6,7-Hexahydro-s-indacen-4-yl)carbamoyl)sulfamoyl)(methyl)amino)ethyl)-N-methylacetamide, potassium salt], the IC50 was under 5 µM.
On the same count and under the same terms, then `CN(C)CCCCNS(=O)(=O)NC(=O)Nc1c2c(cc3c1CCC3)CCC2` [Example 48, 3-(N-(4-(Dimethylamino)butyl)sulfamoyl)-1-(1,2,3,5,6,7-hexahydro-s-indacen-4-yl)urea, potassium salt], with under 1 µM.
On to `CN(C)CCN(CCN(C)C)S(=O)(=O)NC(=O)Nc1c2c(cc3c1CCC3)CCC2` [Example 51, 3-(N,N-Bis(2-(dimethylamino)ethyl)sulfamoyl)-1-(1,2,3,5,6,7-hexahydro-s-indacen-4-yl)urea, potassium salt], for which the concentration for half-maximal inhibition (IC50) is under 10 µM.
For the molecule `CCN(CC)CCN(C)S(=O)(=O)NC(=O)Nc1c2c(cc3c1CCC3)CCC2` [Example 53, 3-(N-(2-(Diethylamino)ethyl)-N-methyl)sulfamoyl)-1-(1,2,3,5,6,7-hexahydro-s-indacen-4-yl)urea, potassium salt], the IC50 is under 5 µM.
The same measure, in the same setting: then `O=C(Nc1c2c(cc3c1CCC3)CCC2)NS(=O)(=O)NCCCCO` [Example 54, 3-((N-(4-Hydroxybutyl))sulfamoyl)-1-(1,2,3,5,6,7-hexahydro-s-indacen-4-yl)urea, potassium salt], with under 5 µM.
For the molecule `Cn1ccc(NS(=O)(=O)NC(=O)Nc2c3c(cc4c2CCC4)CCC3)n1` [Example 55, 3-((N-(1-Methyl-1H-pyrazol-3-yl))sulfamoyl)-1-(1,2,3,5,6,7-hexahydro-s-indacen-4-yl)urea, potassium salt], the IC50 was under 1 µM.
On to `CN(C)C(C)(C)CNS(=O)(=O)NC(=O)Nc1c2c(cc3c1CCC3)CCC2` [Example 57, 3-(N-(2-(Dimethylamino)-2-methylpropyl)sulfamoyl)-1-(1,2,3,5,6,7-hexahydro-s-indacen-4-yl)urea, potassium salt], for which the 50% inhibitory concentration (IC50) is under 5 µM.
In the case of `CN(C)CC(C)(C)NS(=O)(=O)NC(=O)Nc1c2c(cc3c1CCC3)CCC2` [Example 59, 3-(N-(1-(Dimethylamino)-2-methylpropan-2-yl)sulfamoyl)-1-(1,2,3,5,6,7-hexahydro-s-indacen-4-yl)urea, potassium salt], the half-maximal inhibitory concentration (IC50) was under 5 µM.
On the same count and under the same terms, for `O=C(Nc1c2c(cc3c1CCC3)CCC2)NS(=O)(=O)N1CCN2CCC1C2` (centres unmarked) [Example 60, potassium salt] the value was under 1 µM.
On to `CC(C)N1[C@@H]2CC[C@H]1C[C@H](NS(=O)(=O)NC(=O)Nc1c3c(cc4c1CCC4)CCC3)C2` [Example 63, (1R,3s,5S)-8-isopropyl-8-azabicyclo[3.2.1]octan-3-(N-((1,2,3,5,6,7-hexahydro-s-indacen-4-yl)carbamoyl)-sulfonamide)], for which the IC50 was under 1 µM.
As for `CCN(CC)[C@H]1C[C@H]2CC[C@@H](C1)N2S(=O)(=O)NC(=O)Nc1c2c(cc3c1CCC3)CCC2` [Example 64, (1R,3r,5S)-3-(Diethylamino)-N-((1,2,3,5,6,7-hexahydro-s-indacen-4-yl)carbamoyl)-8-azabicyclo[3.2.1]octane-8-sulfonamide], the IC50 is under 0.5 µM.
Consider `CN1C[C@@H]2C[C@H]1CN2S(=O)(=O)NC(=O)Nc1c2c(cc3c1CCC3)CCC2` [Example 67, (1S,4S)—N-((1,2,3,5,6,7-Hexahydro-s-indacen-4-yl)carbamoyl)-5-methyl-2,5-diazabicyclo[2.2.1]heptane-2-sulfonamide, potassium salt], for which the half-inhibitory concentration (IC50) is under 1 µM.
Take `CN1CC(CNS(=O)(=O)NC(=O)Nc2c3c(cc4c2CCC4)CCC3)C1` [Example 69, 3-(N-((1-Methylazetidin-3-yl)methyl)sulfamoyl)-1-(1,2,3,5,6,7-hexahydro-s-indacen-4-yl)urea, potassium salt]: the 50% inhibitory concentration (IC50) is under 1 µM.
For the molecule `O=C(Nc1c2c(cc3c1CCC3)CCC2)NS(=O)(=O)N1[C@@H]2CC[C@H]1C[C@@H](N1CCCC1)C2` [Example 70, (1R,3r,5S)—N-((1,2,3,5,6,7-Hexahydro-s-indacen-4-yl)carbamoyl)-3-(pyrrolidin-1-yl)-8-azabicyclo[3.2.1]octane-8-sulfonamide], the IC50 is under 1 µM.
With `CCN1[C@@H]2CC[C@H]1C[C@H](NS(=O)(=O)NC(=O)Nc1c3c(cc4c1CCC4)CCC3)C2` [Example 74, (1R,3s,5S)-8-Ethyl-8-azabicyclo[3.2.1]octan-3-(N-((1,2,3,5,6,7-hexahydro-s-indacen-4-yl)carbamoyl)-sulfonamide)], the IC50 is under 5 µM.
For the molecule `CN(C)[C@@H]1C[C@H]2CC[C@@H](C1)N2S(=O)(=O)NC(=O)Nc1c2c(cc3c1CCC3)CCC2` [Example 77, (1R,3s,5S)-3-(Dimethylamino)-N-((1,2,3,5,6,7-hexahydro-s-indacen-4-yl)carbamoyl)-8-azabicyclo[3.2.1]octane-8-sulfonamide], the IC50 was under 10 µM.
For the molecule `CCN(CC)[C@@H]1C[C@H]2CC[C@@H](C1)N2S(=O)(=O)NC(=O)Nc1c2c(cc3c1CCC3)CCC2` [Example 78, (1R,3s,5S)-3-(Diethylamino)-N-((1,2,3,5,6,7-hexahydro-s-indacen-4-yl)carbamoyl)-8-azabicyclo[3.2.1]octane-8-sulfonamide], the 50% inhibitory concentration (IC50) was under 5 µM.
In the case of `CN(C)CC1CCCN1S(=O)(=O)NC(=O)Nc1c2c(cc3c1CCC3)CCC2` (centres unmarked) [Example 82, 2-((Dimethylamino)methyl)-N-((1,2,3,5,6,7-hexahydro-s-indacen-4-yl)carbamoyl)pyrrolidine-1-sulfonamide, potassium salt], the IC50 is under 5 µM.
In the case of `CN1CC2CN(S(=O)(=O)NC(=O)Nc3c4c(cc5c3CCC5)CCC4)CC2C1` (centres unmarked) [Example 99, N-((1,2,3,5,6,7-Hexahydro-s-indacen-4-yl)carbamoyl)-5-methylhexahydropyrrolo[3,4-c]pyrrole-2(1H)-sulfonamide], the IC50 was under 5 µM.
Still for that read-out and setting: for `CN1C2CC1CN(S(=O)(=O)NC(=O)Nc1c3c(cc4c1CCC4)CCC3)C2` [Example 100, N-((1,2,3,5,6,7-Hexahydro-s-indacen-4-yl)carbamoyl)-6-methyl-3,6-diazabicyclo[3.1.1]heptane-3-sulfonamide] the value was under 0.5 µM; for `CC(C)c1cc(F)cc(-c2ccnc(C#N)c2)c1NC(=O)NS(=O)(=O)N(C)C1CCN(C)C1` (centres unmarked) [Example 101], under 5 µM; for `CC(C)c1cc(F)cc(-c2ccnc(C#N)c2)c1NC(=O)NS(=O)(=O)N(C)CC1CCCN1C` (centres unmarked) [Example 102], under 5 µM.
Take `Cc1nc(C(C)C)c(NC(=O)NS(=O)(=O)N(C)C2CCN(C)C2)n1-c1ccncc1` (centres unmarked) [Example 109, 1-(5-Isopropyl-2-methyl-3-(4-pyridyl)imidazol-4-yl)-3-(methyl-(1-methylpyrrolidin-3-yl)sulfamoyl)urea]: the IC50 was under 10 µM.

The target of another assay is T1, NLRP3. Description: Human whole blood IL-1β release assay (LPS + nigericin, AlphaLisa). In kind it is cell-based. Details: Plate out 80 μl of whole blood containing 1 μg/ml of LPS; from tissue; host or cells: human whole blood from healthy donors. The note with it: human whole blood, 1 μg/ml LPS, 10 μM nigericin; IL-1β release; read-out: HWB IC50. The procedure: For systemic delivery, the ability to inhibit NLRP3 when the compounds are present within the bloodstream is of great importance. For this reason, the NLRP3 inhibitory activity of a number of compounds in human whole blood was investigated in accordance with the following protocol.
Human whole blood in Li-heparin tubes was obtained from healthy donors from a volunteer donor panel. • 1. Plate out 80 μl of whole blood containing 1 μg/ml of LPS in 96-well, clear bottom cell culture plate (Corning #3585) • 2. Add 10 μl compound (8 points half-log dilution with 10 μM top dose) or vehicle (DMSO 0.1% FAC) to the appropriate wells • 3. Incubate for 3 hrs at 37° C., 5% CO2 • 4. Add 10 μl nigericin (Sigma #N7143) (10 μM FAC) to all wells • 5. Incubate for 1 hr at 37° C., 5% CO2 • 6. At the end of the incubation period, spin plates at 300×g for 5 mins to pellet cells and remove 20 μl of supernatant and add to 96-well v-bottom plates for IL-1β analysis (note: these plates containing the supernatants can be stored at −80° C. to be analysed at a later date) • 7. IL-1β was measured according to the manufacturer protocol (Perkin Elmer-AlphaLisa IL-1 Kit AL220F-5000) • 8. IC50 data is fitted to a non-linear regression equation (log inhibitor vs response-variable slope 4-parameters)
Background: Bead proximity is the source of the signal in Alpha formats.
As to `CN(C)C1CCN(S(=O)(=O)NC(=O)Nc2c3c(cc4c2CCC4)CCC3)C1` (centres unmarked) [Example 9, 3-(Dimethylamino)-N-((1,2,3,5,6,7-hexahydro-s-indacen-4-yl)carbamoyl)pyrrolidine-1-sulfonamide, potassium salt], the concentration for half-maximal inhibition (IC50) was under 0.5 µM.
In the case of `CN(C)[C@H]1C[C@H]2CC[C@@H](C1)N2S(=O)(=O)NC(=O)Nc1c2c(cc3c1CCC3)CCC2` [Example 79, (1R,3r,5S)-3-(Dimethylamino)-N-((1,2,3,5,6,7-hexahydro-s-indacen-4-yl)carbamoyl)-8-azabicyclo[3.2.1]octane-8-sulfonamide], the IC50 was under 0.5 µM.
